Laboratory results published in ChEMBL document CHEMBL1147587, “Synthesis of 7'-[123I]iodo-D-luciferin for in vivo studies of firefly luciferase gene expression” (Bioorg Med Chem Lett, 2004).

Tested on: Lampyridae
Description: Michaelis-Menten constant for binding affinity towards firefly luciferase

- Km: 4.28 µM
SMILES: O=C(O)[C@H]1CSC(c2nc3ccc(O)c(I)c3s2)=N1
